This assay addresses T1, human mGluR4 (Homo sapiens, UniProt Q14833).
T1 construct: expressed in transfected cells
Briefly: Fluorescent cell based Ca2+ mobilization assay (FLIPR) on HEK-293 cells expressing human mGluR4. Conditions: positive allosteric modulation, HEK-293 cells expressing hmGluR4, stimulated by EC25 glutamate; mean of at least three independent experiments in duplicate; read-out: Ca^2+ Flux* (mean EC50). The source says:
mGluR4 Assay on HEK-Expressing Human mGluR4
The compounds of the present invention are positive allosteric modulators of mGluR4 receptor. Their activity was examined on recombinant human mGluR4a receptors by detecting changes in intracellular Ca^2+ concentration, using the fluorescent Ca^2+-sensitive dye Fluo4-(AM) and a Fluorometric Imaging Plate Reader (FLIPR, Molecular Devices, Sunnyvale, Calif.).
The cDNA encoding the human metabotropic glutamate receptor (hmGluR4), (accession number NM_000841.1, NCBI Nucleotide database browser), was subcloned into an expression vector containing also the hygromycin resistance gene. In parallel, the cDNA encoding a G protein allowing redirection of the activation signal to intracellular calcium flux was subcloned into a different expression vector containing also the puromycin resistance gene. Transfection of both these vectors into HEK293 cells with PolyFect reagent (Qiagen) according to supplier's protocol, and hygromycin and puromycin treatment allowed selection of antibiotic resistant cells which had integrated stably one or more copies of the plasmids. Positive cellular clones expressing hmGluR4 were identified in a functional assay measuring changes in calcium fluxes in response to glutamate or selective known mGluR4 orthosteric agonists and antagonists. HEK-293 cells expressing hmGluR4 were maintained in media containing DMEM, dialyzed Fetal Calf Serum (10%), Glutamax™ (2 mM), Penicillin (100 units/mL), Streptomycin (100 μg/mL), Geneticin (100 μg/mL) and Hygromycin-B (40 μg/mL) and puromycin (1 μg/mL) at 37° C./5% CO2.
Human mGluR4 HEK-293 cells were plated out 24 hours prior to FLIPR^384 assay in black-walled, clear-bottomed, poly-L-ornithine-coated 384-well plates at a density of 25,000 cells/well in a glutamine/glutamate free DMEM medium containing foetal bovine serum (10%), penicillin (100 units/mL) and streptomycin (100 μg/mL) at 37° C./5% CO2.
On the day of the assay, the medium was aspirated and the cells were loaded with a 3 μM solution of Fluo4-AM (LuBioScience, Lucerne, Switzerland) in 0.03% pluronic acid. After 1 hour at 37° C./5% CO2, the non incorporated dye was removed by washing cell plate with the assay buffer and the cells were left in the dark at room temperature for […] before testing. All assays were performed in a pH 7.4 buffered-solution containing 20 mM HEPES, 143 mM NaCl, 6 mM KCl, 1 mM MgSO4, 1 mM CaCl2, 0.125 mM sulfapyrazone and 0.1% glucose.
After 10 s of basal fluorescence recording, various concentrations of the compounds of the invention were added to the cells. Changes in fluorescence levels were first monitored for 180 s in order to detect any agonist activity of the compounds. Then the cells were stimulated by an EC25 glutamate concentration for an additional 110 s in order to measure enhancing activities of the compounds of the invention. EC25 glutamate concentration is the concentration giving 25% of the maximal glutamate response.
The concentration-response curves of representative compounds of the present invention were generated using the Prism GraphPad software (Graph Pad Inc, San Diego, USA). The curves were fitted to a four-parameter logistic equation: (Y=Bottom+(Top−Bottom)/(1+10^((Log EC50−X)*Hill Slope) allowing the determination of EC50 values.
The Table 4 below represents the mean EC50 obtained from at least three independent experiments of selected molecules performed in duplicate.
T1 sequence (Q14833 33-912): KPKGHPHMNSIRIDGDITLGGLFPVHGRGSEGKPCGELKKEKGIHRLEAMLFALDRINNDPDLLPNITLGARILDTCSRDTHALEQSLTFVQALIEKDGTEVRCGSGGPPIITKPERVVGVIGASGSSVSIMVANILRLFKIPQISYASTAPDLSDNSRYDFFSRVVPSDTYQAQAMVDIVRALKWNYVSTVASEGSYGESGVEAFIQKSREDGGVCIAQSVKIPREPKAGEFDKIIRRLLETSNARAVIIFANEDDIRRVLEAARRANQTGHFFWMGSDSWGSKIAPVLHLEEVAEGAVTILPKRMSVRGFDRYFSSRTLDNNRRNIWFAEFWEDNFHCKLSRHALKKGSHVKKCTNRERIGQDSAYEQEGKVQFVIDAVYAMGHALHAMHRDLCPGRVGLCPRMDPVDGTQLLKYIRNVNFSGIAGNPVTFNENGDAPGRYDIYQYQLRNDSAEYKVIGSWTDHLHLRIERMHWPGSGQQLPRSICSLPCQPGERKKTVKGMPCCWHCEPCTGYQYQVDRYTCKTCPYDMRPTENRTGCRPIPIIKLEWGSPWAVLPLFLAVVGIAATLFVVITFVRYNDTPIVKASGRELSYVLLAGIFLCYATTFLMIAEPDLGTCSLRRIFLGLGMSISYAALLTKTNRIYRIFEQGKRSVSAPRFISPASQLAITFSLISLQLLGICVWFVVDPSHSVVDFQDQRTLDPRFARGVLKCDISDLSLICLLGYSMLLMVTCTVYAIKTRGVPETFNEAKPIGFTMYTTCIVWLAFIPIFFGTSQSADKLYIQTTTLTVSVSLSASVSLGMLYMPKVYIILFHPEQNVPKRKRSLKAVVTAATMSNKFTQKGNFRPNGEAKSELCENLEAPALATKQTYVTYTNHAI
Usually EC50 stands for the concentration needed to bring the measured effect to its halfway point. In the case of `Fc1cnc(Nc2nc3c(s2)CCN(CC2CCCCC2)c2n[nH]cc2-3)nc1` [Compound 1-38, 6-(Cyclohexylmethyl)-N-(5-fluoropyrimidin-2-yl)-4,5,6,8-tetrahydropyrazolo[3,4-b]thiazolo[4,5-d]azepin-2-amine], the 50% effective concentration (EC50) is less than 100 nM.

Regarding `Fc1cnc(Nc2nc3c(s2)CCN(Cc2ccc(Cl)cn2)c2n[nH]cc2-3)nc1` [Compound 1-41, 6-((5-Chloropyridin-2-yl)methyl)-N-(5-fluoropyrimidin-2-yl)-4,5,6,8-tetrahydropyrazolo[3,4-b]thiazolo[4,5-d]azepin-2-amine], the EC50 is less than 100 nM.

Consider `CC(C)c1cc(CN2CCc3nc(Nc4ncc(F)cn4)sc3-c3c[nH]nc32)no1` [Compound 1-42], for which the EC50 was less than 100 nM.

Turning to `CC(C)OCCN1CCc2sc(Nc3ncc(F)cn3)nc2-c2c[nH]nc21` [Compound 1-43, N-(5-Fluoropyrimidin-2-yl)-6-(2-isopropoxyethyl)-4,5,6,8-tetrahydropyrazolo[3,4-b]thiazolo[4,5-d]azepin-2-amine], the EC50 is less than 100 nM.

`Fc1cnc(Nc2nc3c(s2)CCN(CC2CCC2)c2n[nH]cc2-3)nc1` [Compound 1-44, 6-(Cyclobutylmethyl)-N-(5-fluoropyrimidin-2-yl)-4,5,6,8-tetrahydropyrazolo[3,4-b]thiazolo[4,5-d]azepin-2-amine]: the EC50 was less than 100 nM.

Consider `Fc1cnc(Nc2nc3c(s2)CCN(Cc2ccccc2)c2[nH]ncc2-3)nc1` [Compound 1-45, 6-Benzyl-N-(5-fluoropyrimidin-2-yl)-4,5,6,7-tetrahydropyrazolo[3,4-b]thiazolo[4,5-d]azepin-2-amine], for which the concentration giving a half-maximal response (EC50) is less than 100 nM.

As for `Cc1cc(CN2CCc3sc(Nc4nccc(C)n4)nc3-c3c[nH]nc32)on1` [Compound 1-46, 6-((3-Methylisoxazol-5-yl)methyl)-N-(4-methylpyrimidin-2-yl)-4,5,6,8-tetrahydropyrazolo[3,4-b]thiazolo[4,5-d]azepin-2-amine], the 50% effective concentration (EC50) is less than 100 nM.

Consider `Fc1cnc(Nc2nc3c(s2)CCN(CC2CCCO2)c2[nH]ncc2-3)nc1` (stereo not drawn) [Compound 1-48, N-(5-Fluoropyrimidin-2-yl)-6-((tetrahydrofuran-2-yl)methyl)-4,5,6,7-tetrahydropyrazolo[3,4-b]thiazolo[4,5-d]azepin-2-amine], for which the EC50 is less than 100 nM.

In the case of `Fc1cnc(Nc2nc3c(s2)CCN(Cc2ncccn2)c2[nH]ncc2-3)nc1` [Compound 1-49, N-(5-Fluoropyrimidin-2-yl)-6-(pyrimidin-2-ylmethyl)-4,5,6,7-tetrahydropyrazolo[3,4-b]thiazolo[4,5-d]azepin-2-amine], the EC50 is less than 100 nM.

Turning to `COCCN1CCc2sc(Nc3ncc(O)cn3)nc2-c2cn[nH]c21` [Compound 1-50, 2-(6-(2-Methoxyethyl)-4,5,6,7-tetrahydropyrazolo[3,4-b]thiazolo[4,5-d]azepin-2-ylamino)pyrimidin-5-ol], the EC50 was less than 100 nM.

Take `Fc1cnc(Nc2nc3c(s2)CCN(C[C@H]2CCCO2)c2[nH]ncc2-3)nc1` [Compound 1-51]: the EC50 is less than 100 nM.

With `Cn1ncc(CN2CCc3sc(Nc4ncc(F)cn4)nc3-c3cn[nH]c32)n1` [Compound 1-52, N-(5-Fluoropyrimidin-2-yl)-6-((2-methyl-2H-1,2,3-triazol-4-yl)methyl)-4,5,6,7-tetrahydropyrazolo[3,4-b]thiazolo[4,5-d]azepin-2-amine], the concentration giving a half-maximal response (EC50) is less than 100 nM.

In the case of `COCCN1CCc2sc(Nc3cccc(CO)n3)nc2-c2c[nH]nc21` [Compound 1-53, (6-(6-(2-Methoxyethyl)-4,5,6,8-tetrahydropyrazolo[3,4-b]thiazolo[4,5-d]azepin-2-ylamino)pyridin-2-yl)methanol], the EC50 was in the range of 1000 to 10000 nM.

As for `COCCN1CCc2sc(Nc3ccnc(C)n3)nc2-c2c[nH]nc21` [Compound 1-54, 6-(2-Methoxyethyl)-N-(2-methylpyrimidin-4-yl)-4,5,6,8-tetrahydropyrazolo[3,4-b]thiazolo[4,5-d]azepin-2-amine], the concentration giving a half-maximal response (EC50) was in the range of 1000 to 10000 nM.

For `COCCN1CCc2sc(Nc3ccncn3)nc2-c2c[nH]nc21` [Compound 1-55, 6-(2-Methoxyethyl)-N-(pyrimidin-4-yl)-4,5,6,8-tetrahydropyrazolo[3,4-b]thiazolo[4,5-d]azepin-2-amine], the EC50 was in the range of 1000 to 10000 nM.

For `Fc1cnc(Nc2nc3c(s2)CCN(Cc2ccn[nH]2)c2n[nH]cc2-3)nc1` [Compound 1-56, 6-((1H-Pyrazol-5-yl)methyl)-N-(5-fluoropyrimidin-2-yl)-4,5,6,8-tetrahydropyrazolo[3,4-b]thiazolo[4,5-d]azepin-2-amine], the EC50 is 100 to 1000 nM.

For `Fc1cnc(Nc2nc3c(s2)CCN(Cc2[nH]ncc2Br)c2n[nH]cc2-3)nc1` [Compound 1-57, 6-((4-Bromo-1H-pyrazol-5-yl)methyl)-N-(5-fluoropyrimidin-2-yl)-4,5,6,8-tetrahydropyrazolo[3,4-b]thiazolo[4,5-d]azepin-2-amine], the EC50 fell in the range of 1000 to 10000 nM.

For `Fc1cnc(Nc2nc3c(s2)CCN(Cc2ccc(Cl)cc2)c2[nH]ncc2-3)nc1` [Compound 1-58, 6-(4-Chlorobenzyl)-N-(5-fluoropyrimidin-2-yl)-4,5,6,7-tetrahydropyrazolo[3,4-b]thiazolo[4,5-d]azepin-2-amine], the concentration for a half-maximal effect (EC50) was in the range of 100 to 1000 nM.

For the compound `Cc1ccccc1CN1CCc2sc(Nc3ncc(F)cn3)nc2-c2cn[nH]c21` [Compound 1-59, N-(5-Fluoropyrimidin-2-yl)-6-(2-methylbenzyl)-4,5,6,7-tetrahydropyrazolo[3,4-b]thiazolo[4,5-d]azepin-2-amine], the EC50 was 1000 to 10000 nM.

For `COc1cccc(CN2CCc3sc(Nc4ncc(F)cn4)nc3-c3cn[nH]c32)c1` [Compound 1-60, N-(5-Fluoropyrimidin-2-yl)-6-(3-methoxybenzyl)-4,5,6,7-tetrahydropyrazolo[3,4-b]thiazolo[4,5-d]azepin-2-amine], the EC50 was in the range of 100 to 1000 nM.

Regarding `Fc1ccc(CN2CCc3sc(Nc4ncc(F)cn4)nc3-c3cn[nH]c32)nc1` [Compound 1-61, 6-((5-Fluoropyridin-2-yl)methyl)-N-(5-fluoropyrimidin-2-yl)-4,5,6,7-tetrahydropyrazolo[3,4-b]thiazolo[4,5-d]azepin-2-amine], the EC50 was less than 100 nM.

For `Fc1cnc(Nc2nc3c(s2)CCN(Cc2ccc(C(F)(F)F)cn2)c2[nH]ncc2-3)nc1` [Compound 1-62, N-(5-Fluoropyrimidin-2-yl)-6-((5-(trifluoromethyl)pyridin-2-yl)methyl)-4,5,6,7-tetrahydropyrazolo[3,4-b]thiazolo[4,5-d]azepin-2-amine], the EC50 is less than 100 nM.

Take `Cc1ccnc(CN2CCc3nc(Nc4ncc(F)cn4)sc3-c3cn[nH]c32)c1` [Compound 1-63]: the EC50 is less than 100 nM.

On to `Fc1cnc(Nc2nc3c(s2)CCN(Cc2ncccc2Cl)c2[nH]ncc2-3)nc1` [Compound 1-64, 6-((3-Chloropyridin-2-yl)methyl)-N-(5-fluoropyrimidin-2-yl)-4,5,6,7-tetrahydropyrazolo[3,4-b]thiazolo[4,5-d]azepin-2-amine], for which the concentration for a half-maximal effect (EC50) lay in the range of 100 to 1000 nM.

As for `Fc1cnc(Nc2nc3c(s2)CCN(CCc2ccccc2)c2[nH]ncc2-3)nc1` [Compound 1-65, N-(5-Fluoropyrimidin-2-yl)-6-phenethyl-4,5,6,7-tetrahydropyrazolo[3,4-b]thiazolo[4,5-d]azepin-2-amine], the EC50 fell in the range of 100 to 1000 nM.

In the case of `COCCN1CCc2sc(Nc3nc(C)ccc3F)nc2-c2cn[nH]c21` [Compound 1-66, N-(3-Fluoro-6-methylpyridin-2-yl)-6-(2-methoxyethyl)-4,5,6,7-tetrahydropyrazolo[3,4-b]thiazolo[4,5-d]azepin-2-amine], the EC50 was in the range of 100 to 1000 nM.

Take `Fc1cnc(Nc2nc3c(s2)CCN(Cc2cccc(Cl)c2)c2[nH]ncc2-3)nc1` [Compound 1-67, 6-(3-Chlorobenzyl)-N-(5-fluoropyrimidin-2-yl)-4,5,6,7-tetrahydropyrazolo[3,4-b]thiazolo[4,5-d]azepin-2-amine]: the EC50 lay within 100 to 1000 nM.

The record behind these values is patent US9765091B2, “Tetrahydropyrazolo [3,4-b] azepine derivatives and their use as allosteric modulators of metabotropic glutamate receptors” (Addex Pharma S.A., priority 2010, dated 2017).
